Results from PubChem BioAssay AID248 (DTP/NCI, 2004).
Toxic doses and inconclusive results are not listed. No stated cut-off is given here; in the data, active means T/C of 150% or more; inactive means T/C below 125%.

Test system: L1210 leukemia ip in BDF1 mice, survival T/C
Assay: NCI In Vivo Anticancer Drug Screen. Data for tumor model L1210 Leukemia (intraperitoneal) in B6D2F1 (BDF1) mice
Settings: endpoint: mean survival time, higher = longer survival
Method in brief: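 Each compound was tested against a transplantable tumor grown in mice. The endpoint was survival, with treated animals benchmarked against vehicle controls as a simple ratio.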

[1] = dose: 100.0 mg/kg/injection, schedule: Q01DX009 (ip), vehicle: saline with Tween-80
[2] = dose: 200.0 mg/kg/injection, schedule: Q01DX009 (ip), vehicle: saline with Tween-80
[3] = dose: 400.0 mg/kg/injection, schedule: Q01DX009 (ip), vehicle: saline with Tween-80
[4] = dose: 100.0 mg/kg/injection, schedule: Q01DX001 (ip), vehicle: saline
[5] = dose: 100.0 mg/kg/injection, schedule: Q01DX009 (ip), vehicle: Klucel (hydroxypropylcellulose) (HPC)
[6] = dose: 200.0 mg/kg/injection, schedule: Q01DX009 (ip), vehicle: Klucel (hydroxypropylcellulose) (HPC)

Measured: T/C

CCCCCCCCOc1ccc(C(=O)O)cc1
inactive: [1] 96 % of control | [2] 96 % of control | [3] 92 % of control

CCCCCCCCCC(O)CCCC(O)C(O)CCCCCCC(=O)O (configuration not stated)
inactive: dose: 100.0 mg/kg/injection, schedule: Q04DX002 (ip), vehicle: Klucel (hydroxypropylcellulose) (HPC) 91 % of control | dose: 200.0 mg/kg/injection, schedule: Q04DX002 (ip), vehicle: Klucel (hydroxypropylcellulose) (HPC) 91 % of control | dose: 400.0 mg/kg/injection, schedule: Q04DX002 (ip), vehicle: Klucel (hydroxypropylcellulose) (HPC) 91 % of control

BrC1CC2OC2C2OC12 (configuration not stated)
inactive: dose: 25.0 mg/kg/injection, schedule: Q04DX002 (ip), vehicle: saline 108 % of control | dose: 50.0 mg/kg/injection, schedule: Q04DX002 (ip), vehicle: saline 105 % of control | [4] 100 % of control | dose: 100.0 mg/kg/injection, schedule: Q04DX002 (ip), vehicle: saline 102 % of control

Cc1ncc(C(=O)O)c2c1OC(C)(C)OC2
inactive: dose: 50.0 mg/kg/injection, schedule: Q01DX001 (ip), vehicle: saline 100 % of control | [4] 91 % of control | dose: 200.0 mg/kg/injection, schedule: Q01DX001 (ip), vehicle: saline 100 % of control | dose: 400.0 mg/kg/injection, schedule: Q01DX001 (ip), vehicle: saline 94 % of control

CC(=O)NCCCCC(=O)c1ccccc1
inactive: [1] 102 % of control | [2] 100 % of control

CN(C)/C=N\N(c1ccccc1)c1ccccc1
inactive: dose: 100.0 mg/kg/injection, schedule: Q04DX002 (ip), vehicle: saline with Tween-80 106 % of control | dose: 200.0 mg/kg/injection, schedule: Q04DX002 (ip), vehicle: saline with Tween-80 98 % of control

CC(=O)n1c(N)nc2ccccc21
inactive: [5] 103 % of control | [6] 102 % of control

CC(=O)C(O)N1C(=O)C=CC1=O (configuration not stated)
inactive: dose: 1.25 mg/kg/injection, schedule: Q01DX009 (ip), vehicle: saline 103 % of control | dose: 1.25 mg/kg/injection, schedule: Q#A X018 (ip), vehicle: saline 103 % of control | dose: 2.5 mg/kg/injection, schedule: Q01DX009 (ip), vehicle: saline 100 % of control | dose: 2.5 mg/kg/injection, schedule: Q04DX003 (ip), vehicle: water 104 % of control | dose: 2.5 mg/kg/injection, schedule: Q## X006 (ip), vehicle: water 104 % of control | dose: 2.5 mg/kg/injection, schedule: Q#A X018 (ip), vehicle: saline 102 % of control | dose: 5.0 mg/kg/injection, schedule: Q01DX009 (ip), vehicle: saline 91 % of control | dose: 5.0 mg/kg/injection, schedule: Q04DX003 (ip), vehicle: water 102 % of control | dose: 5.0 mg/kg/injection, schedule: Q## X006 (ip), vehicle: water 102 % of control | dose: 5.0 mg/kg/injection, schedule: Q#A X018 (ip), vehicle: saline 100 % of control | dose: 10.0 mg/kg/injection, schedule: Q## X006 (ip), vehicle: water 104 % of control | dose: 10.0 mg/kg/injection, schedule: Q#A X018 (ip), vehicle: saline 100 % of control

CC(C)(C)OC(=O)N1Cc2cc3ccccc3nc2C1
inactive: dose: 50.0 mg/kg/injection, schedule: Q01DX009 (ip), vehicle: saline 98 % of control | dose: 100.0 mg/kg/injection, schedule: Q01DX009 (ip), vehicle: saline 94 % of control | dose: 100.0 mg/kg/injection, schedule: Q04DX003 (ip), vehicle: saline 96 % of control | dose: 200.0 mg/kg/injection, schedule: Q04DX003 (ip), vehicle: saline 100 % of control

C[Si](C)(C)C1C=Cc2ccccc2C1[Si](C)(C)C (configuration not stated)
inactive: [1] 94 % of control | [2] 91 % of control | [3] 94 % of control

CSc1ncc(CO)c(N)n1
inactive: dose: 50.0 mg/kg/injection, schedule: Q01DX001 (ip), vehicle: carboxymethylcellulose (CMC) 111 % of control | dose: 100.0 mg/kg/injection, schedule: Q01DX001 (ip), vehicle: carboxymethylcellulose (CMC) 98 % of control | dose: 200.0 mg/kg/injection, schedule: Q01DX001 (ip), vehicle: carboxymethylcellulose (CMC) 102 % of control | dose: 400.0 mg/kg/injection, schedule: Q01DX001 (ip), vehicle: carboxymethylcellulose (CMC) 111 % of control

C=C(Cl)CSC1=NCCS1
inactive: dose: 100.0 mg/kg/injection, schedule: Q04DX002 (sc), vehicle: olive oil, sesame oil, peanut oil 90 % of control | dose: 200.0 mg/kg/injection, schedule: Q04DX002 (sc), vehicle: olive oil, sesame oil, peanut oil 100 % of control | dose: 400.0 mg/kg/injection, schedule: Q04DX002 (sc), vehicle: olive oil, sesame oil, peanut oil 100 % of control

O=C(NCCc1ccccc1)c1ccc2ccccc2n1
inactive: dose: 3.12 mg/kg/injection, schedule: Q01DX009 (ip), vehicle: DMSO 93 % of control | dose: 6.25 mg/kg/injection, schedule: Q01DX009 (ip), vehicle: DMSO 93 % of control | dose: 12.5 mg/kg/injection, schedule: Q01DX009 (ip), vehicle: DMSO 91 % of control | dose: 25.0 mg/kg/injection, schedule: Q01DX009 (ip), vehicle: DMSO 90 % of control | dose: 100.0 mg/kg/injection, schedule: Q04DX003 (ip), vehicle: DMSO 95 % of control | dose: 200.0 mg/kg/injection, schedule: Q04DX003 (ip), vehicle: DMSO 97 % of control | dose: 400.0 mg/kg/injection, schedule: Q04DX003 (ip), vehicle: DMSO 95 % of control

Cc1ncc(CO)n1Cc1ccccc1
inactive: dose: 100.0 mg/kg/injection, schedule: Q01DX001 (ip), vehicle: Klucel (hydroxypropylcellulose) (HPC) 104 % of control | dose: 200.0 mg/kg/injection, schedule: Q01DX001 (ip), vehicle: Klucel (hydroxypropylcellulose) (HPC) 104 % of control | dose: 400.0 mg/kg/injection, schedule: Q01DX001 (ip), vehicle: Klucel (hydroxypropylcellulose) (HPC) 114 % of control

CC(=O)c1cccc(NC(=O)Nc2cccc(C)n2)c1
inactive: [5] 106 % of control | [6] 102 % of control | dose: 400.0 mg/kg/injection, schedule: Q01DX009 (ip), vehicle: Klucel (hydroxypropylcellulose) (HPC) 101 % of control

COc1cc2c(cc1I)-c1c(cc(OC)c(OC)c1OC)CC[C@@H]2NC(C)=O
inactive: dose: 17.0 mg/kg/injection, schedule: Q01DX Z (ip), vehicle: carboxymethylcellulose (CMC) 102 % of control | dose: 26.0 mg/kg/injection, schedule: Q01DX Z (ip), vehicle: carboxymethylcellulose (CMC) 108 % of control | dose: 40.0 mg/kg/injection, schedule: Q01DX Z (ip), vehicle: carboxymethylcellulose (CMC) 119 % of control | dose: 49.0 mg/kg/injection, schedule: Q01DX Z (ip), vehicle: carboxymethylcellulose (CMC) 103 % of control | dose: 50.0 mg/kg/injection, schedule: Q01DX009 (ip), vehicle: saline sonified 108 % of control | dose: 60.0 mg/kg/injection, schedule: Q01DX Z (ip), vehicle: carboxymethylcellulose (CMC) 117 % of control | dose: 73.0 mg/kg/injection, schedule: Q01DX Z (ip), vehicle: carboxymethylcellulose (CMC) 103 % of control | dose: 90.0 mg/kg/injection, schedule: Q01DX Z (ip), vehicle: carboxymethylcellulose (CMC) 102 % of control | dose: 100.0 mg/kg/injection, schedule: Q01DX009 (ip), vehicle: saline sonified 106 % of control | dose: 100.0 mg/kg/injection, schedule: Q04DX003 (ip), vehicle: Klucel (hydroxypropylcellulose) (HPC) 99 % of control | dose: 110.0 mg/kg/injection, schedule: Q01DX Z (ip), vehicle: carboxymethylcellulose (CMC) 103 % of control | dose: 200.0 mg/kg/injection, schedule: Q01DX009 (ip), vehicle: saline sonified 119 % of control | dose: 200.0 mg/kg/injection, schedule: Q04DX003 (ip), vehicle: Klucel (hydroxypropylcellulose) (HPC) 99 % of control
